Columns and labels:
[1] = system: mosquito larvae; conditions: cited from earlier work
[2] = system: cabbage looper; conditions: cited from earlier work
[3] = system: cotton aphids; conditions: cited from earlier work
[4] = system: Larval-stage lone star ticks (Amblyomma americanum); test: Dip survival assay (larval immersion microassay) against A. americanum larvae; type: in vivo; conditions: submerged 30 minutes, counted after 24 hours
Text: Activity Against A. Americanum Larvae in a Dip Survival Assay
Using a previously-described protocol that can effectively predict compound potency against adult ticks in the field (White, W H. et al., An in vitro larval immersion microassay for identifying and characterizing candidate acaricides. J Med Entomol. 2004 November; 41(6):1034-42), test compounds from a dimethyl sulfoxide (DMSO) stock or 2% DMSO alone were dispensed into a round-bottom 96-well plate and mixed with aqueous buffer containing 1% ethanol and 0.2% Triton X100. […] Larval-stage lone star ticks (Amblyomma americanum) were dispensed into the wells containing test compounds and submerged for 30 minutes. The ticks were subsequently dispensed into a tissue biopsy bag, which is allowed to dry for 1 hour. After drying, the bags were incubated at 25° with 95% humidity for 24 hours and the number of live and dead larvae were counted.

[5] = rat versus trout liver microsomes; cited from earlier work
[6] = system: tobacco bud worm; conditions: tobacco budworm; cited from earlier work
[7] = system: ova from cat flea (Ctenocephalides felis); test: Activity against C. felis ova (larval emergence in treated vials); type: in vivo
Text: Activity Against C. Felis Ova
Evaluation of test compounds against flea ova is a commonly-used assay for the determination of commercial efficacy against these insect parasites (McTier T L et al., Evaluation of the effects of selamectin against adult and immature stages of fleas (Ctenocephalides felis felis) on dogs and cats. Vet Parasitol. 2000 Aug. 23; 91(3-4):201-12; Dryden M et al., Efficacy of a topically applied formulation of metaflumizone on cats against the adult cat flea, flea egg production and hatch, and adult flea emergence. Vet Parasitol. 2007 Dec. 15; 150(3):263-7). Compounds were dissolved in acetone and 100 μl of each solution was placed in 5 ml glass vials and allowed to air dry. Forty ova from cat flea (Ctenocephalides felis) that were less than 48 hours old as well as flea dirt (primarily adult flea fecal material and host dander) were placed in the vials. Vials were covered with paper towels to allow air exchange and incubated at 25° with 90% humidity for 5 days, and the number of larvae were counted.

[8] = system: fish, mammals; conditions: fish versus mammals; cited from earlier work
[9] = system: southern corn rootworm; conditions: cited from earlier work
[10] = system: tobacco budworm; conditions: cited from earlier work

CC(C)(C)c1ccc(CCOc2ncnc3ccccc23)cc1 [Formula I, 4-tert-butylphenethyl quinazolin-4-yl ether]
LC50 [1]: 0.725 ppm
LC50 [2]: 188 ppm
LC50 [3]: 2.6 ppm
Number of live/total tick larvae 24 hours after treatment ([4]; concentration 0.001%): 23/80
Number of live/total tick larvae 24 hours after treatment ([4]; concentration 0.01%): 0/51
Number of live/total tick larvae 24 hours after treatment ([4]; concentration 0.05%): 0/48
degradation by liver microsomes [5]: degraded more extensively by rat liver microsomes than by trout liver microsomes
metabolism [6]: extensively metabolized
Flea larvae emerging, percent of total eggs, from 40 ova after 5 days ([7]; 10 μg per vial): 10%
Number of flea larvae emerging from 40 ova after 5 days ([7]; 10 μg per vial): 4
Flea larvae emerging, percent of total eggs, from 40 ova after 5 days ([7]; 100 μg per vial): 2.5%
Number of flea larvae emerging from 40 ova after 5 days ([7]; 100 μg per vial): 1
Flea larvae emerging, percent of total eggs, from 40 ova after 5 days ([7]; 1 mg per vial): 2.5%
Number of flea larvae emerging from 40 ova after 5 days ([7]; 1 mg per vial): 1
toxicity [8]: higher toxicity of the compound to fish than to mammals
activity (LC50) [9]: greater than 400 ppm
activity (LC50) [10]: greater than 400 ppm

CCc1nn(C)c(C(=O)NCc2ccc(C(C)(C)C)cc2)c1Cl [Formula II, 4-chloro-5-ethyl-2-methyl-N-[(4-tert-butylphenyl)methyl]pyrazole-3-carboxamide]
Number of live/total tick larvae 24 hours after treatment ([4]; concentration 0.001%): 38/85
Number of live/total tick larvae 24 hours after treatment ([4]; concentration 0.01%): 0/77
Number of live/total tick larvae 24 hours after treatment ([4]; concentration 0.05%): 0/69
Flea larvae emerging, percent of total eggs, from 40 ova after 5 days ([7]; 10 μg per vial): 17.5%
Number of flea larvae emerging from 40 ova after 5 days ([7]; 10 μg per vial): 7
Flea larvae emerging, percent of total eggs, from 40 ova after 5 days ([7]; 100 μg per vial): 2.5%
Number of flea larvae emerging from 40 ova after 5 days ([7]; 100 μg per vial): 1
Flea larvae emerging, percent of total eggs, from 40 ova after 5 days ([7]; 1 mg per vial): 2.5%
Number of flea larvae emerging from 40 ova after 5 days ([7]; 1 mg per vial): 1

CCc1nn(C)c(C(=O)NCc2ccc(Oc3ccc(C)cc3)cc2)c1Cl [Formula IV, 4-chloro-3-ethyl-1-methyl-N-[4-(p-tolyloxy)benzyl]pyrazole-5-carboxamide]
Number of live/total tick larvae 24 hours after treatment ([4]; concentration 0.001%): 58/114
Number of live/total tick larvae 24 hours after treatment ([4]; concentration 0.01%): 0/79
Number of live/total tick larvae 24 hours after treatment ([4]; concentration 0.05%): 0/76
Flea larvae emerging, percent of total eggs, from 40 ova after 5 days ([7]; 10 μg per vial): 15%
Number of flea larvae emerging from 40 ova after 5 days ([7]; 10 μg per vial): 6
Flea larvae emerging, percent of total eggs, from 40 ova after 5 days ([7]; 100 μg per vial): 0 (0%)
Number of flea larvae emerging from 40 ova after 5 days ([7]; 100 μg per vial): 0 (0%)
Flea larvae emerging, percent of total eggs, from 40 ova after 5 days ([7]; 1 mg per vial): 0 (0% )
Number of flea larvae emerging from 40 ova after 5 days ([7]; 1 mg per vial): 0 (0% )
